Test [1] concerns the target T1, Lp1A (Escherichia coli, UniProt P32099). Particulars: Azide 7 probe; cited from earlier work.
In another test the target is Lp1AW37A (Escherichia coli, UniProt P32099, W38A). The settings on record: HEK cells, Lp1AW37A and 11-Br 5 min, QD605-HaloTag 5 min.
Test [2] addresses T2, Escherichia coli lipoic acid ligase (Lp1A) (Escherichia coli, UniProt P32099).
T2 sequence (P32099 1-338): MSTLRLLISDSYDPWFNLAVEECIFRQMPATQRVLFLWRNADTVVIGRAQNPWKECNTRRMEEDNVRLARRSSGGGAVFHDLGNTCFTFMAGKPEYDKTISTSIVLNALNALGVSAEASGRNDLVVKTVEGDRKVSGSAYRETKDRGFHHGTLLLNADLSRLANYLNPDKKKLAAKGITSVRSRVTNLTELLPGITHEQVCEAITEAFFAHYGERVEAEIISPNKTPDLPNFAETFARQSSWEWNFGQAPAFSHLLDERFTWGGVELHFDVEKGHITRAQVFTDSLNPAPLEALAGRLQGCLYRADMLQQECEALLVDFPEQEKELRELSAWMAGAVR
Briefly: Lp1A-catalyzed lipoylation kinetics (kcat, Km) by HPLC. It counts as biochemical. The settings on record: estimated, based on HPLC measurements.
Procedure: Various concentrations of synthetic LAP2 peptide (not a fusion protein) were lipoylated with 50 nM Lp1A, 750 μM lipoic acid, and 3 mM ATP, and initial reaction rates were measured by HPLC. […] Measurements were performed in triplicate.
Using HPLC to quantify product formation, the kcat and Km values were measured for Lp1A-catalyzed lipoylation of a synthetic LAP2 peptide (without an attached fusion protein).
To measure the kcat and Km values for lipoylation, 50 nM Lp1A was combined with 750 μM lipoic acid, 2 mM ATP, and 5 mM magnesium acetate in DPBS. Varying concentrations of LAP2 (5.5, 11, 22, 44, 88, 176, or 352 μM) were used; 60 μL aliquots were removed from the 30° C. reactions at 5 min intervals, up to 20 min, and quenched with 180 mM EDTA (final concentration). HPLC was used to determine the amount of product in each aliquot, and kinetic parameters were extracted using the Michaelis-Menten equation as described previously.^13,28

Test [3] addresses T1, Lp1A. As to the kind of experiment: Cell surface lipoylation of CFP-TM fusion constructs on mammalian cells. It counts as cell-based. The settings on record: HEK cells, CFP-TM fusions, 1 μM Lp1A, 10 min. How it is done:
FIG. 8 depicts cell surface lipoylation of LAP4.3 vs. LAP4.3D. HeLa cells expressing either LAP4.3-CFP-TM or LAP4.3D-CFP-TM were lipoylated with 1 μM Lp1A for 10 minutes. Lipoylation was detected with Alexa568-conjugated anti-lipoic acid antibody.
However, expression levels of intracellular proteins are similar, whether fused to a LAP sequence or E2p. […] Scale bar, 10 μm. […] Single cell mean fluorescein/CFP intensity ratios were tabulated for >160 cells from >18 fields of view.
Second, the LAPs were compared in a cell surface lipoylation assay (FIG. 9). CFP-TM fusion constructs were expressed in human embryonic kidney 293 (HEK) cells, and lipoylation was carried out by purified Lp1A enzyme added to the media. After 10 min of labeling, lipoylated cell surface proteins were imaged using antilipoic acid antibody. […] To quantitatively compare the labeling efficiencies of all the LAP sequences, lipoylation signal (as measured by antibody staining intensity) was plotted against CFP signal for single cells.

For orientation: Km means the substrate concentration at which the rate is half of its maximum.

Some results are limits rather than exact numbers.

Lp1AW37A, sequence (P32099 whole entry W38A): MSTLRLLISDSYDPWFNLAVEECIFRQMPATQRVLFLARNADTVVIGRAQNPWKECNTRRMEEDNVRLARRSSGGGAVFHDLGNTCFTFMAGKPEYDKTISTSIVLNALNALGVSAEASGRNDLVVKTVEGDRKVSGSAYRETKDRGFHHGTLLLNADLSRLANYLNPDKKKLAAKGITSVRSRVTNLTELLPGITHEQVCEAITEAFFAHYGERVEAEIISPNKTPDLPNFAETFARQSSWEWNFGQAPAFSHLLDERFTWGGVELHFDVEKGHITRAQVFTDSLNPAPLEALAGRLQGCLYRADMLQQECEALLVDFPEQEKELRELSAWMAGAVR
Procedure for Lp1AW37A: QD605 emission is shown in the top row. Merged GFP and DIC (differential interference contrast) images are shown in the bottom row. Negative controls are shown with ATP or Lp1A omitted. Scale bars, 10 μm.
HEK 293T cells were transfected with LAP2-GFP-LDLR plasmid using Lipofectamine 2000. After 24 h in growth media (Dulbecco's Modified Eagle Medium (DMEM) with 10% fetal bovine serum (FBS)) at 37° C., enzymatic ligation of 11-Br was performed in DPBS containing 10 μM Lp1A(W37A), 500 μM 11-Br, 1 mM ATP, 5 mM Mg(OAc)2 and 1% (w/v) BSA (Fraction V, EMD) as a blocking agent for 5 min at room temperature. Cells were then rinsed three times with DPBS followed by treatment with 50 nM HaloTag-QD60531 in DPBS containing 1% BSA for 5 min at room temperature. After another three rinses with DPBS, cells were imaged in the same buffer on a Zeiss Axio Observer.Z1 inverted epifluorescence microscope using a 40X oil-immersion lens. […] Fluorescence images were normalized to the same intensity ranges.

Regarding DEVLVEIETDKAVLEVPGGEEE [LAP1], the “kcat for Azide 7 ligation” value at Lp1A [1] is 0.048 s⁻¹. The “QD605 labeling at the cell surface” value on Lp1AW37A is recorded as “undetectable”. Also, the Km in test [2] is above 200 µM. Further, the “cell surface lipoylation (antilipoic acid antibody imaging)” value at Lp1A [3] is “labeling was not detected”.

These data come from patent publication US8759482B2, “Kinetically efficient substrate for lipoic acid ligase” (Massachusetts Institute of Technology, priority 2009, dated 2014).
